# Laboratory results from patent US20180371384A1, “METHOD FOR PRODUCING ROOTING-SUPPRESSED MALT” (SUNTORY HOLDINGS LIMITED, priority 2015, published 2018).
# Key:
# β-amylase = test: Measurement of β-amylase level in malts; parameters: species or system barley
# Method: One gram of […] previously cryo-milled with ShakeMaster manufactured by Medical Bio Science is suspended in 2 mL of a buffer suitable for the measurement of activities of various enzymes, extraction is carried out for 60 minutes in iced water, and the extracts are then subjected to ultracentrifugation treatment (1,000 g×20 minutes), to provide the supernatant as an enzyme solution. Enzyme extracts from […] to Betamyl (p-nitrophenyl maltotriose; […]
# endoprotease = test: Measurement of endoprotease level in malts; parameters: species or system barley
# Method: One gram of […] previously cryo-milled with ShakeMaster manufactured by Medical Bio Science is suspended in 2 mL of a buffer suitable for the measurement of activities of various enzymes, extraction is carried out for 60 minutes in iced water, and the extracts are then subjected to ultracentrifugation treatment (1,000 g×20 minutes), to provide the supernatant as an enzyme solution. Azo-stained casein is used as a substrate, enzyme extracts from […] thereto, and the mixture is reacted at 40° C. for 30 minutes. The reaction is stopped with a TCA solution, the solution is allowed to stand for 5 minutes, the mixture is then subjected to centrifugation to precipitate an undegraded substrate, and the supernatant is subjected to colorimetry at 366 mn (n=5). Here, an enzyme activity is defined such that an enzyme concentration of an enzyme liquid which is added to an enzyme reaction liquid to increase the absorbance by 1.0 is 1 U/mL. […] A pH of the solution is then adjusted to 8.5 with a diluted sulfuric acid, and a volume is tilled up to 100 mL.
# α-amylase = test: Measurement of α-amylase level in malts; parameters: species or system barley
# Method: One gram of malts which are previously cryo-milled with ShakeMaster manufactured by Medical Bio Science is suspended in 2 mL of a buffer suitable for the measurement of activities of various enzymes, extraction is carried out for 60 minutes in iced water, and the extracts are then subjected to ultracentrifugation treatment (1,000 g×20 minutes), to provide the supernatant as an enzyme solution.
# A crop a amylase kit from BIOCON is used. A blocked p-nitrophenyl maltoheptaoside (BPNPG7) is used as a substrate, enzyme extracts from malts are added thereto, and the mixture is reacted at 40° C. for 20 minutes. The reaction is stopped with Trizma base, and p-nitrophenyl maltosaccharide produced is degraded with glucoamylase, α-glucosidase. P-nitrophenol produced is subjected to phenolate color development, and the absorbance is measured at 410 nm (n=5).
# barley (Sukai Golden) = test: Amount of rooting, yield and length of acrospires (Test Example 3); format: in vivo; conditions: for Amount of Rooting Based on 100 g of Barley: germination 5 days at 20° C.
# Description: Here, the rooting amount used herein means total weight of a root thrusting out of the surface of each grain in malts which are malted from 100 g of raw material barley.
# Crops of Sukai Golden harvested in the year 2013 (99% of germination ratio) were used as domestic (Japan) two-row malting barley cultivar. and steeping conditions were the same as those in Test Example 1. A standard in which steeping of barley was earned out in pure water (pH 7.0) was defined as “normal steeping bailey (Comparative Example 2),” and a standard in which steeping of barley was earned out in an aqueous solution having a pH listed in Table 3 with phosphoric acid was defined as “acidic steeping barley (Example 2),” and three batches of malts each of which was obtained by going through the steps of steeping, germination and kilning were prepared. For each of batches of the normal malts and the acidic steeping barley obtained, the weight of rooting was obtained, and an average length of acrospires and an yield were obtained in the same manner as Test Example 1 to calculate an average thereof. In addition, each of the contents of an acrid component and β-glucan was measured as follows, and the contents of enzymes were measured in the same manner as Test Example 2. […] In addition, the germination was carried out for 5 days while keeping a temperature at 20° C. In addition, an yield was calculated as X/100 (%) from X g of a weight of roots-removed malts obtained from 100 g of barley.
# [1] = test system: acrid component (hordatine glycoside); test: Measurement of acrid components in malts (LCMS); parameters: species or system barley
# Description: In addition, the content of the acrid component in the acidic steeping malts obtained is, for example, lowered in a case of a pH of from 1.8 to 2.0 of the acidic steeping water, and the content is preferably 90% by weight or less, more preferably 80% by weight or less, even more preferably 75% by weight or less, even more preferably 70% by weight or less, even more preferably 60% by weight or less, and even more preferably 55% by weight or less, when defining the content of the acrid component in normal malts as 100% by weight. Here, the acrid component as used herein refers to a hordatine glycoside, and the content can be measured in accordance with a method set forth in the following Examples.
# The amount 5.0 g of malts which are previously cryo-milled with ShakeMaster manufactured by Medical Bio Science are suspended in 40 mL of hot water at 65° C., and extraction is carried out at 65° C. for 1 hour. Thereafter, the extracts are subjected to centrifugation at 5,000 rpm for 20 minutes, and 10 mL of the supernatant is applied to PLS-2 solid phase column of GL Science (activated with methanol or the like), the column is washed with water, and thereafter fractions eluted with 20% ethanol are collected. The eluents are concentrated with SpeedVac, a concentrate is then freeze-dried, the freeze-dried product is dissolved in water, and the solution is subjected to LCMS under the following conditions, to obtain area of peak thereof.
# Apparatus; LCMS-2020 manufactured by Shimadzu Corporation
# Column: Polar column (Develosil-C30-UG-5. φ2×150 mm)
# Mobile phase: Gradient of water containing 0.1% formic acid/acetocetonitrile[sic] • 0 to 62.5 minutes (2→10% acetonitrile) • 62.5 to 72.5 minutes (10% acetonitrile)
# Column temperature: 40° C.
compound,measurement,setting,value
"O=P(O)(O)O [Phosphoric Acid, phosphoric acid]","β-Amylase (Based on Normal Steeping Barley, %)","β-amylase; Initial pH 1.5, 223 mM",187%
same,"β-Amylase (Based on Normal Steeping Barley, %)","β-amylase; Initial pH 1.6, 176 mM",128%
same,"β-Amylase (Based on Normal Steeping Barley, %)","β-amylase; Initial pH 1.8, 82 mM",557%
same,"β-Amylase (Based on Normal Steeping Barley, %)","β-amylase; Initial pH 2.0, 29 mM",400%
same,"β-Amylase (Based on Normal Steeping Barley, %)","β-amylase; Initial pH 2.2, 18 mM",370%
same,"β-Amylase (Based on Normal Steeping Barley, %)","β-amylase; Initial pH 2.4, 7 mM",221%
same,"Endoprotease (Based on Normal Steeping Barley, %)","endoprotease; Initial pH 1.5, 223 mM",16%
same,"Endoprotease (Based on Normal Steeping Barley, %)","endoprotease; Initial pH 1.6, 176 mM",20%
same,"Endoprotease (Based on Normal Steeping Barley, %)","endoprotease; Initial pH 1.8, 82 mM",45%
same,"Endoprotease (Based on Normal Steeping Barley, %)","endoprotease; Initial pH 2.0, 29 mM",65%
same,"Endoprotease (Based on Normal Steeping Barley, %)","endoprotease; Initial pH 2.2, 18 mM",68%
same,"Endoprotease (Based on Normal Steeping Barley, %)","endoprotease; Initial pH 2.4, 7 mM",35%
same,"α-Amylase (Based on Normal Steeping Barley, %)","α-amylase; Initial pH 1.5, 223 mM",21%
same,"α-Amylase (Based on Normal Steeping Barley, %)","α-amylase; Initial pH 1.6, 176 mM",25%
same,"α-Amylase (Based on Normal Steeping Barley, %)","α-amylase; Initial pH 1.8, 82 mM",39%
same,"α-Amylase (Based on Normal Steeping Barley, %)","α-amylase; Initial pH 2.0, 29 mM",90%
same,"α-Amylase (Based on Normal Steeping Barley, %)","α-amylase; Initial pH 2.2, 18 mM",90%
same,"α-Amylase (Based on Normal Steeping Barley, %)","α-amylase; Initial pH 2.4, 7 mM",91%
same,Length of Acrospires,"barley (Sukai Golden); Initial pH 1.5, 223 mM",0.38
same,Amount of Rooting Based on 100 g of Barley,"barley (Sukai Golden); Initial pH 1.5, 223 mM",0.03 g
same,Length of Acrospires,"barley (Sukai Golden); Initial pH 1.6, 176 mM",0.38
same,Amount of Rooting Based on 100 g of Barley,"barley (Sukai Golden); Initial pH 1.6, 176 mM",0.03 g
same,Length of Acrospires,"barley (Sukai Golden); Initial pH 1.8, 82 mM",0.38
same,Amount of Rooting Based on 100 g of Barley,"barley (Sukai Golden); Initial pH 1.8, 82 mM",0.05 g
same,Length of Acrospires,"barley (Sukai Golden); Initial pH 2.0, 29 mM",0.62
same,Amount of Rooting Based on 100 g of Barley,"barley (Sukai Golden); Initial pH 2.0, 29 mM",0.30 g
same,Length of Acrospires,"barley (Sukai Golden); Initial pH 2.2, 18 mM",0.63
same,Amount of Rooting Based on 100 g of Barley,"barley (Sukai Golden); Initial pH 2.2, 18 mM",1.51 g
same,Length of Acrospires,"barley (Sukai Golden); Initial pH 2.4, 7 mM",0.63
same,Amount of Rooting Based on 100 g of Barley,"barley (Sukai Golden); Initial pH 2.4, 7 mM",2.90 g
same,"Acrid Component (Based on Normal Steeping Barley, % by weight)","[1]; Initial pH 1.5, 223 mM",259 % by weight
same,"Acrid Component (Based on Normal Steeping Barley, % by weight)","[1]; Initial pH 1.6, 176 mM",104 % by weight
same,"Acrid Component (Based on Normal Steeping Barley, % by weight)","[1]; Initial pH 1.8, 82 mM",53 % by weight
same,"Acrid Component (Based on Normal Steeping Barley, % by weight)","[1]; Initial pH 2.0, 29 mM",80 % by weight
same,"Acrid Component (Based on Normal Steeping Barley, % by weight)","[1]; Initial pH 2.2, 18 mM",116 % by weight
same,"Acrid Component (Based on Normal Steeping Barley, % by weight)","[1]; Initial pH 2.4, 7 mM",120 % by weight
